Data published in US20220356163A1, “SMALL MOLECULE INHIBITORS OF Id PROTEINS” (MEMORIAL SLOAN KETTERING CANCER CENTER, priority 2019, published 2022).
pIC50: −log10 of the molar value.

Tests used:
Id3 = biological target: T1, Id3 (Mus musculus, UniProt P41133); assay: Circular dichroism (CD) of Id3; format: binding; details: 0 or 100 μM
T1 construct: GST (cleaved yes); made in house; host or cells: E. coli Rosetta 2(DE3)
Method: Id protein purification. pGEV-PSP-mId1 and mId3 expression constructs were transformed into Rosetta 2(DE3) Competent Cells (Sigma Millipore) for protein expression. To produce recombinant GST-tagged protein, a 50 mL LB/Ampicillin (100 μg/m)+Chloramphenicol (25 μg/mL) culture was grown overnight at 37° C. Early the next day, the overnight culture was diluted 1:100 into 6 L LB/Ampicillin+Chloramphenicol and cultured at 37° C. for about four hours until OD600=0.7. Cultures were induced with 1 mM IPTG and incubated at 16° C. for 16-18 hours. Cells were harvested by centrifugation at 4000 rpm for 15 minutes at 4° C. and the pellet was resuspended in lysis buffer (50 mM Tris pH 8.0; 400 mM NaCl; 0.5 mM TCEP, Protease Inhibitor Cocktail) (25 mL/L of culture). To lyse the cells, Triton X-100 and lysozyme were added to 0.1% and 10 μg/mL respectively, incubated for 30 minutes on ice and sonicated. Lysates were spun at 17,000 rpm for 30 minutes at 4° C. and supernatants were filtered through a […] filter before incubation with glutathione sepharose for two hours at 4° C. The sepharose with bound protein was run through a polypropylene column and washed twice with 50 mL wash buffer (50 mM Tris pH 8.0; 400 mM NaCl) before protein was eluted with 10 mL 50 mM glutathione elution buffer, pH 8.0. […]

HUVEC = HUVEC scratch (migration) assay; format: cell-based, human; details: 0-40 μM, 24 hours
Method: HUVEC scratch assay. HUVECs were seeded on 24-well plate coated with 0.1% fibronectin. After 24 hours when cells were grown to confluency, cells were serum starved for 4 hours in Endothelial Basal Medium (EBM, Lonza) and scraped with a sterile P200 pipette tip to generate a cell free zone. Cells were washed with PBS and stimulated with EGM-2 medium with the indicated AGX concentration for 24 hours. The scratched area at 0 and at 24 hours was visualized using an inverted microscope and photographed with a digital camera at 20× magnification.

MDA-MB-436 = assay: MTT assay, MDA-MB-436; format: cell-based; details: Homo sapiens, 24 h, MDA-MB-436, TNBC cell line, read-out: IC50 value after 24 hours of treatment
Excerpt: (§1) The 4T1 murine mammary tumor cell line and nine breast cancer cell lines representing the major breast cancer subtypes (ER+, HER2+, and TNBC) including MDA-MB-157, MDA-MB-436, MDA-MB-231, MDA-MB-453, MDA-MB-361, BT-474, SK-BR-3, MCF-7 and T47-D will be grown in RPMI or DMEM (Dulbecco's Modified Eagle Medium) media supplemented with 10% FBS (fetal bovine serum), 1% penicillin-streptomycin and 1% L-Glutamine. Patient derived xenograft cell lines BR7, BR11, and IBT will be established directly from breast cancer bone metastases specimens surgically resected from patients with informed consent. BR7 and BR11 specimens will be obtained from ER positive (HER2 negative and PR negative) metastatic breast cancer patients, while the IBT specimen will be obtained from a metastatic, triple negative breast cancer patient. Fresh tumor tissues will be quickly washed with ice cold PBS and minced into about 1-3 mm pieces in MEM medium (without FBS) using sterile razor blades. […] The cells will be treated with either 100 μM DMSO, AGX51, or a compound of the present technology such as AGX-A. The cell morphology and growth will be monitored daily for 1 week by microscopy for changes in morphology or cell death. […] Absorbance will then measured at 570 nm using a plate reader (Synergy 2, BioTek). […]

MCF-7 = assay: MTT assay, MCF-7; format: cell-based; details: Homo sapiens, MCF7, 24 h, MCF-7, ER +ve cell line, read-out: IC50 value after 24 hours of treatment
Excerpt: as §1

PDX-BR11 = assay: MTT assay, PDX-BR11; format: cell-based; details: 24 h, PDX-BR11, PDX cell line, read-out: IC50 value after 24 hours of treatment
Excerpt: as §1

[1] = test system: new blood vessel formation; assay: Matrigel plug anti-angiogenic assay; format: in vivo, mouse; details: in plugs 25 μg/mg or daily ip 30 or 100 mg/kg, 10 days
Method: VEGF-165 and FGF-2 treated Matrigel plugs will be implanted on Day 0 into C57BL/6 mice. Mice will be treated with either vehicle, AGX51, or a compound of the present technology (such as AGX-A). The AGX51 and a compound of the present technology will be provided either in the plugs (25 μg/mg) or by daily ip treatment (30 or 100 mg/kg) for 10 days. Plugs will be harvested on Day 10, fixed and paraffin embedded. Three sections ([…]) of each plug will be stained with an anti-CD31 antibody and counterstained with hematoxylin and eosin stain. CD31-positive microvessels will be counted for one entire cross-section per plug and the average micro-vessel density±SD vessels will be determined. Student's t-test will be used for statistical analysis.

T1 sequence (P41133 whole entry): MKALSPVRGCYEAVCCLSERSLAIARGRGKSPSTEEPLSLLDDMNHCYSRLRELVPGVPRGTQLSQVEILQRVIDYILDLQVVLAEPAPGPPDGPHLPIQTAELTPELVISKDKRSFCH

SMILES: CCC(=O)N(CCC(c1ccc2c(c1)OCO2)c1ccccc1OC)Cc1ccccc1 (racemic) [AGX51, N-(3-(benzo[d][1,3]dioxol-5-yl)-3-(2-methoxyphenyl)propyl)-N-benzylpropionamide]
- effect on Id3 secondary structure (CD) (Id3): small but reproducible effect
- HUVEC migration (HUVEC): significantly impaired HUVEC migration
- pIC50 (MDA-MB-436): 4.51
- pIC50 (MCF-7): 4.22
- pIC50 (PDX-BR11): 4.73
- new blood vessel formation in Matrigel plugs [1]: significant protection from new blood vessel formation
